Source: ChEMBL document CHEMBL1147457, “Thiourea inhibitors of herpes viruses. Part 2: N-Benzyl-N'-arylthiourea inhibitors of CMV” (Bioorg Med Chem Lett, 2004)

How the values were obtained:
Cytomegalovirus = assay: Inhibitory activity against cytomegalo virus was determined; type: functional, organism-based; conditions: Human betaherpesvirus 5
Human alphaherpesvirus 2 = assay: Inhibitory activity against herpes simplex virus was determined; type: functional, organism-based
[1] = Inhibitory activity against MTS host cell toxicity was determined; type: functional
[2] = system: Respiratory syncytial virus; assay: Inhibitory activity against respiratory syncytial virus was determined; type: functional, organism-based; conditions: human respiratory syncytial virus
Human alphaherpesvirus 3 = assay: Inhibitory activity against varicella zoster virus was determined; type: functional, organism-based

Row | SMILES | IC50 (Cytomegalovirus) | IC50 (Human alphaherpesvirus 2) | IC50 [2] | IC50 (Human alphaherpesvirus 3) | IC50 [1]
1 | CC(C)(/N=C(\S)Nc1ccc(NC(=O)c2csnn2)cc1)c1cc(C(F)(F)F)cc(C(F)(F)F)c1 | 0.004 µM | > 5 µM | > 5 µM | > 3.7 µM | > 7.5 µM
2 | CC(/N=C(\S)Nc1ccc(NC(=O)c2csnn2)cc1)c1cc(C(F)(F)F)cc(C(F)(F)F)c1 (configuration not stated) | 0.003 µM | > 5 µM | > 5 µM | > 3.7 µM | > 7.5 µM
3 | C[C@H](/N=C(\S)Nc1ccc(NC(=O)c2csnn2)nc1)c1cc(C(F)(F)F)cc(C(F)(F)F)c1 | 0.003 µM | 4.1 µM | > 5 µM | > 3.7 µM | 8 µM
4 | O=C(Nc1ccc(N/C(S)=N/Cc2cc(C(F)(F)F)cc(C(F)(F)F)c2)cn1)c1csnn1 | 0.0044 µM | > 5 µM | > 5 µM | > 3.7 µM | > 7.5 µM
5 | C[C@H](/N=C(\S)Nc1ccc(NC(=O)c2csnn2)cc1)c1cc(C(F)(F)F)cc(C(F)(F)F)c1 | 0.003 µM | > 5 µM | > 5 µM | > 3.7 µM | > 7.5 µM
6 | O=C(Nc1ccc(/N=C(\S)Nc2cc(C(F)(F)F)cc(C(F)(F)F)c2)cc1)c1cscn1 | 0.016 µM | > 5 µM | > 5 µM | > 5 µM | –
7 | O=C(Nc1ccc(/N=C(\S)Nc2cc(C(F)(F)F)cc(C(F)(F)F)c2)cc1)c1csnn1 | 0.037 µM | > 5 µM | 5 µM | > 5 µM | –

Compounds with a lower IC50 (Cytomegalovirus), results first:

Row | IC50 (Cytomegalovirus) | IC50 (Human alphaherpesvirus 2) | IC50 [2] | IC50 (Human alphaherpesvirus 3) | SMILES | IC50 [1]
8 | 0.0028 µM | > 5 µM | 1 µM | > 3.7 µM | C[C@@H](/N=C(\S)Nc1ccc(NC(=O)c2cscn2)nc1)c1cc(C(F)(F)F)cc(C(F)(F)F)c1 | > 7.5 µM
9 | 0.002 µM | > 5 µM | > 5 µM | > 5 µM | O=C(Nc1ccc(N/C(S)=N/Cc2cc(C(F)(F)F)cc(C(F)(F)F)c2)cc1)c1csnn1 | –
10 | 0.002 µM | > 5 µM | > 5 µM | > 3.7 µM | O=C(Nc1ccc(N/C(S)=N/C(c2ccccc2)c2cc(C(F)(F)F)cc(C(F)(F)F)c2)cc1)c1csnn1 (configuration not stated) | > 7.5 µM
11 | 0.002 µM | > 5 µM | > 5 µM | > 3.7 µM | C[C@H](/N=C(\S)Nc1ccc(NC(=O)c2cscn2)nc1)c1cc(C(F)(F)F)cc(C(F)(F)F)c1 | > 7.5 µM
12 | 0.0015 µM | > 5 µM | 2 µM | > 3.7 µM | C[C@@H](/N=C(\S)Nc1ccc(NC(=O)c2cscn2)cc1)c1cc(C(F)(F)F)cc(C(F)(F)F)c1 | > 7.5 µM
13 | 0.001 µM | > 5 µM | > 5 µM | > 3.7 µM | CCCC(/N=C(\S)Nc1ccc(NC(=O)c2csnn2)cc1)c1cc(C(F)(F)F)cc(C(F)(F)F)c1 (configuration not stated) | > 7.5 µM
14 | 0.001 µM | 5 µM | > 5 µM | > 3.7 µM | CCC(/N=C(\S)Nc1ccc(NC(=O)c2csnn2)cc1)c1cc(C(F)(F)F)cc(C(F)(F)F)c1 (configuration not stated) | > 7.5 µM
15 | 0.0006 µM | > 5 µM | > 5 µM | > 3.7 µM | C[C@H](/N=C(\S)Nc1ccc(NC(=O)c2cscn2)cc1)c1cc(C(F)(F)F)cc(C(F)(F)F)c1 | > 7.5 µM
16 | 0.0002 µM | 4.1 µM | > 5 µM | > 3.7 µM | CCC(/N=C(\S)Nc1ccc(NC(=O)c2cscn2)cc1)c1cc(C(F)(F)F)cc(C(F)(F)F)c1 (configuration not stated) | > 7.5 µM
